# In PMC9883540, “Study on pharmacokinetic interactions between SHR2554 and itraconazole in healthy subjects: A single‐center, open‐label phase I trial” (Cancer Medicine, 2022):
# Several values for one entry are separate records, joined by “and”; a condition that tells them apart may be missing. Equal values may be shown once. Entries after “also recorded” stand apart in the source; their conditions may differ. Read-outs that look alike come from different tables or passages of the source.
# Experiments:
# [1] = system: CYP3A4; conditions: preclinical test, no method or reference given; cited from earlier work
# [2] = in vivo
# Procedure: Eighteen volunteers were recruited for the study. The subjects were orally administered SHR2554 at a 50 mg daily dose (Day 1); then, they were orally administered itraconazole 200 mg Quaque Die (QD) for 4 days (Days 4–7) followed by co‐administration of itraconazole 200 mg and SHR2554 50 mg (Day 8). They took itraconazole 200 mg QD for 4 days (Days 9–12). All subjects were fasted for at least 10 h, and they ate a standard meal in 30 min before drug administration. Water was forbidden within 1 h after drug administration, and the subjects were fasted for at least 4 h after drug administration.
# Safety evaluation included adverse events, laboratory tests, physical examination, measurement of vital signs, 12‐lead electrocardiogram, etc. All abnormal and clinically significant laboratory results were followed up until they returned to normal.
# [3] = system: cell H3K27Me3 and cell proliferation; design: method as in PMID 34503063; conditions: cited from earlier work
# [4] = system: tumor; conditions: same dose; no reference given; cited from earlier work
# [5] = system: CYP3A4; conditions: sponsor's preclinical studies, no method or reference given; cited from earlier work
# [6] = system: CYP3A4; conditions: preclinical test, no method or reference given; cited from earlier work; remark: listed apart in the source
# [7] = cited from earlier work
# [8] = cited from earlier work; remark: listed apart in the source
# [9] = system: Caco‐2 cell model; design: method as in PMID 34498807; conditions: preclinical results; cited from earlier work
# [10] = system: wild‐type and mutant EZH2 enzymes; conditions: no method or reference given; cited from earlier work
# [11] = Pharmacokinetic interaction study of itraconazole on SHR2554, plasma SHR2554 by HPLC-MS/MS; format: in vivo, human; conditions: for AUC0–t / AUC0–∞ / C max: plasma SHR2554, mean ± SD
# Procedure: Eighteen volunteers were recruited for the study. […] The samples of venous blood (4 ml) were collected into heparinized Vacutainer™ tubes and mixed gently. […] Thereafter, plasma was separated by centrifugation (2000g at 4°C for 10 min) within 1 h of sample collection and then stored at −80°C before analyses. The plasma concentrations of SHR2554 were determined by a validated method with sensitivity and specificity using high‐performance liquid chromatography–tandem mass spectrometry (HPLC‐MS/MS) by Shanghai InnoStar Bio‐tech Co. Ltd. Blood samples were pretreated by protein precipitation with acetonitrile. Biological sample analysis was performed using SHR149633 (free base) as an internal standard. Separation of SHR2554 was carried out using a […] ZORBAX Extend‐C18 column (2.1 × 50 mm, 1.8 μm), and analytes were detected on an AB SCIEX QTRAP 5500 mass spectrometer. The assay was linear over the range of 1–2000 ng·ml^−1. […] Plasma samples are stable under various conditions. The PK parameters were evaluated using Phoenix WinNonlin v8.1. Statistical analysis was performed with SAS v9.2 (SAS Institute). Descriptive statistics and tabulation of PK parameters for analytes were performed, and mean concentration‐time curves were plotted. After natural log transformation, the PK parameters were fitted with a mixed‐effects model. In the mixed‐effects model analysis, medication (itraconazole combined with SHR2554 or SHR2554 alone) was used as a fixed effect, and the participants in the model fitting were used as random effects. The corrected least‐square mean difference and 90% confidence interval (CI) between the administration of a single drug (SHR2554) alone and a combination drug (co‐administration of SHR2554 and itraconazole) were obtained. The corrected least‐square mean difference and its 90% confidence interval were converted to the adjusted geometric mean ratios (GMRs) (co‐administration of SHR2554 and itraconazole/SHR2554 alone) and its 90% confidence interval by taking the antilog.
# [12] = cited from earlier work; remark: listed apart in the source
# [13] = completed or ongoing clinical trials of SHR2554, reference not given
# [14] = SHR2554 50 mg co-administered with itraconazole 200 mg (Day 8), fed, mean ± SD
# [15] = SHR2554 50 mg co-administered with itraconazole 200 mg (Day 8), fed
# [16] = SHR2554 50 mg single oral dose alone (Day 1), fed, mean ± SD
# [17] = SHR2554 50 mg single oral dose alone (Day 1), fed
# [18] = SHR2554 50 mg, itraconazole 200 mg, 90% CI in brackets
smiles,measurement,setting,value
CCc1c(N(CC)C2CCOCC2)cc2oc(CN3CCCCC3)cc2c1C(=O)NCc1c(C)cc(C)[nH]c1=O [SHR2554],inhibitory effect on CYP3A4,[1],weak inhibitory effect
same,"Itraconazole‐related TEAEs, Cases",[2],2
same,"Itraconazole‐related TEAEs, Number of subjects (%)",[2],2 (11.1)
same,"SHR2554‐related TEAEs, Cases",[2],12
same,"SHR2554‐related TEAEs, Number of subjects (%)",[2],9 (50.0)
same,"TEAEs, Cases",[2],13
same,"TEAEs, Number of subjects (%)",[2],9 (50.0)
same,"TEAEs, Total",[2],9 (50.0)
same,TEAEs: All kinds of inspection,[2],8 (44.4)
same,TEAEs: Appendicitis,[2],0
same,TEAEs: Blood in the urine,[2],2 (11.1)
same,TEAEs: Cardiac organ diseases,[2],1 (5.6)
same,TEAEs: Hematuria,[2],1 (5.6)
same,TEAEs: High blood uric acid,[2],1 (5.6)
same,TEAEs: Increased blood bilirubin,[2],0
same,TEAEs: Increased blood triglyceride,[2],4 (22.2)
same,TEAEs: Increased heart rate,[2],1 (5.6)
same,TEAEs: Infectious diseases,[2],0
same,TEAEs: Kidney and urinary system diseases,[2],2 (11.1)
same,TEAEs: Positive bacterial tests,[2],2 (11.1)
same,TEAEs: Positive urine leukocyte,[2],0
same,TEAEs: Rash,[2],0
same,TEAEs: Skin and subcutaneous tissue diseases,[2],0
same,TEAEs: Spermaturia,[2],1 (5.6)
same,TEAEs: Supraventricular extrasystole contraction,[2],1 (5.6)
same,"drug-related TEAEs, Cases",[2],16
same,"IC50 for inhibiting cell H3K27Me3 and cell proliferation, relative to EPZ-6438",[3],comparable or even better
same,"anti-tumor activity in vitro, relative to EPZ-6438 (tazemetostat)",[3],comparable
same,serum and tumor systemic exposure as fraction of that of EPZ-6438,[4],about one‐fifth
same,tumor inhibition rate relative to the reference compound EPZ-6438,[4],higher
same,enzyme catalysing the oxidative metabolism,[5],mainly metabolized by CYP3A4; also recorded: mainly catalyzed by CYP3A4
same,induction of the expression of the CYP3A4 enzyme,[6],only high concentration SHR2554 can induce
same,subjects with grade four neutropenia reported as SAE/DLT,"[7]; 350 mg group, ref NCT03603951",one
same,subjects with grade three and four decreased platelet counts reported as SAE/DLT,"[7]; 400 mg BID group, as of January 3, 2020, ref NCT03603951",two
same,safety at doses below 300 mg BID (including 300 mg BID),"[7]; no drug-related SAE or DLT, previous clinical studies, ref NCT03603951",good and good safety profile
same,recommended phase II dose,"[7]; previous clinical studies, ref NCT03603951",350 mg BID
same,increase of exposure relative to increase of dose,"[7]; range of 50–400 mg BID, ref NCT03603951",higher than that of the administered dose
same,subjects with grade two anemia reported as SAE,[7]; ref NCT03741712,one
same,electrocardiogram finding in some subjects,"[8]; completed or ongoing clinical trials of SHR2554, clinically controllable, no reference given",prolongation of the QT interval of the electrocardiogram
same,most common drug-related TEAEs in hematology,[8]; [13],"decreased white blood cell count, thrombocytopenia, neutropenia, and hyperlipidemia, increased aspartate aminotransferase level, hypertension, elevated alanine aminotransferase, anemia"
same,non-hematological common drug-related TEAEs,[8]; [13],nausea and fatigue
same,permeability,[9],low permeability
same,inhibition of the activity of wild-type and mutant EZH2 enzymes,[10],potently inhibits
same,CL/F (apparent clearance),[11]; [14],98.4 ± 46.96 L/h
same,t 1/2 (elimination half-life),[11]; [14],8.678 ± 3.6031 h
same,AUC0–t,[11]; [15],612.13 ± 315.720 ng·h/mL
same,AUC0–∞,[11]; [15],641.53 ± 319.538 ng·h/mL
same,C max,"[11]; SHR2554 50 mg co-administered with itraconazole 200 mg (Day 8; itraconazole 200 mg QD Days 4-12), fed",70.538 ± 25.0219 ng/mL
same,plasma concentration of all subjects at 96 h,[11]; SHR2554 50 mg combined with itraconazole 200 mg,below LLOQ
same,AUC_%Extrap (percentage of AUCINF_pred due to extrapolation from Tlast to infinity),[11]; [16],14.498 ± 2.9731 (20.51) [N = 8] %
same,CL/F (apparent clearance),[11]; [16],2127.7 ± 1592.02 L·h^−1 and 2127.7 ± 1592.02 (74.82) [N = 18] L·h^−1
same,T max,[11]; [16],"1.472 ± 0.6286 (0.50, 3.00) [N = 18] h"
same,V z /F,[11]; [16],8439.2 ± 3779.31 (44.78) [N = 18] L
same,t 1/2 (elimination half-life),[11]; [16],"3.287 ± 1.0636 (1.76, 5.94) [N = 18] h"
same,AUC0–t,[11]; [17],28.70 ± 18.913 (65.90) [N = 18] h·ng·ml^−1
same,AUC0–∞,[11]; [17],50.99 ± 19.358 (37.97) [N = 8] h·ng·ml^−1
same,C max,[11]; [17],10.197 ± 7.0262 (68.91) [N = 18] ng·ml^−1
same,adjusted geometric mean ratio of SHR2554 AUC0–t (co-administration with itraconazole / SHR2554 alone),[11]; [18],23.75 fold
same,adjusted geometric mean ratio of SHR2554 AUC0–∞ (co-administration with itraconazole / SHR2554 alone),[11]; [18],12.47 fold
same,adjusted geometric mean ratio of SHR2554 C max (co-administration with itraconazole / SHR2554 alone),[11]; [18],7.73 fold
same,plasma concentration of all subjects at 24 h after administration,"[11]; single-dose phase of SHR2554 50 mg, assay range 1–2000 ng·ml^−1",below lower limit of quantitation
CC[C@H](C)C(=O)O[C@H]1C[C@@H](C)C=C2C=C[C@H](C)[C@H](CC[C@@H](O)C[C@@H](O)CC(=O)O)[C@H]21 [lovastatin (acid)],change in the AUC with itraconazole,[12]; itraconazole dose 100 mg,15 fold
same,change in the AUC with itraconazole,[12]; itraconazole dose 200 mg,20 fold
"CC[C@H](C)n1cc(C)c2c(C(=O)NCc3c(C)cc(C)[nH]c3=O)cc(-c3ccc(N4CCNCC4)nc3)cc21 [GSK2816126, reference compound]",most common adverse reactions in clinical trial,[8],fatigue and nausea
"CCN(c1cc(-c2ccc(CN3CCOCC3)cc2)cc(C(=O)NCc2c(C)cc(C)[nH]c2=O)c1C)C1CCOCC1 [tazemetostat, reference compound]",adverse effects in clinical trial,[8],"thrombocytopenia, neutropenia, and anemia"
"CCC(C)n1ncn(-c2ccc(N3CCN(c4ccc(OCC5COC(Cn6cncn6)(c6ccc(Cl)cc6Cl)O5)cc4)CC3)cc2)c1=O (stereo not shown) [Itraconazole, itraconazole]","Itraconazole‐related TEAEs, Cases",[2]; human,2
same,"Itraconazole‐related TEAEs, Number of subjects (%)",[2]; human,2 (11.1)
same,"SHR2554‐related TEAEs, Cases",[2]; human,1
same,"SHR2554‐related TEAEs, Number of subjects (%)",[2]; human,1 (5.6)
same,"TEAEs, Cases",[2]; human,2
same,"TEAEs, Number of subjects (%)",[2]; human,2 (11.1)
same,"TEAEs, Total",[2]; human,2 (11.1)
same,TEAEs: All kinds of inspection,[2]; human,1 (5.6)
same,TEAEs: Appendicitis,[2]; human,0
same,TEAEs: Blood in the urine,[2]; human,0
same,TEAEs: Cardiac organ diseases,[2]; human,0
same,TEAEs: Hematuria,[2]; human,0
same,TEAEs: High blood uric acid,[2]; human,0
same,TEAEs: Increased blood bilirubin,[2]; human,0
same,TEAEs: Increased blood triglyceride,[2]; human,1 (5.6)
same,TEAEs: Increased heart rate,[2]; human,0
same,TEAEs: Infectious diseases,[2]; human,0
same,TEAEs: Kidney and urinary system diseases,[2]; human,0
same,TEAEs: Positive bacterial tests,[2]; human,0
same,TEAEs: Positive urine leukocyte,[2]; human,0
same,TEAEs: Rash,[2]; human,1 (5.6)
same,TEAEs: Skin and subcutaneous tissue diseases,[2]; human,1 (5.6)
same,TEAEs: Spermaturia,[2]; human,0
same,TEAEs: Supraventricular extrasystole contraction,[2]; human,0
same,"drug-related TEAEs, Cases",[2]; human,6
same,"drug-related TEAEs, Cases",[2],six
